Experimental data taken from the NIST ThermoML archive (doi:10.1021/je900732r).

Assay: mn = molality of the nth substance listed, in mol/kg
Conditions: 101 kPa, Liquid

[Co+2].[O-][Cl+3]([O-])([O-])[O-].[O-][Cl+3]([O-])([O-])[O-] [cobalt(II) perchlorate] + C[S+](C)[O-]
mass density [kg/m3]
Conditions | 293.15 K | 298.15 K | 303.15 K | 313.15 K | 323.15 K | 333.15 K
m1 = 0.01481 | 1103.37 | 1098.35 | 1093.34 | 1083.31 | 1073.29 | 1063.26
m1 = 0.0215 | 1104.79 | 1099.78 | 1094.77 | 1084.75 | 1074.74 | 1064.73
m1 = 0.03236 | 1107.1 | 1102.1 | 1097.1 | 1087.09 | 1077.1 | 1067.1
m1 = 0.04309 | 1109.4 | 1104.4 | 1099.41 | 1089.42 | 1079.44 | 1069.46
m1 = 0.05528 | 1112.02 | 1107.03 | 1102.04 | 1092.06 | 1082.1 | 1072.14
m1 = 0.06505 | 1114.13 | 1109.14 | 1104.15 | 1094.2 | 1084.25 | 1074.3
m1 = 0.08726 | 1118.94 | 1113.97 | 1109 | 1099.07 | 1089.15 | 1079.22
m1 = 0.1069 | 1123.24 | 1118.27 | 1113.31 | 1103.39 | 1093.51 | 1083.61
m1 = 0.1285 | 1127.98 | 1123.03 | 1118.08 | 1108.19 | 1098.33 | 1088.47
m1 = 0.148 | 1132.32 | 1127.38 | 1122.44 | 1112.57 | 1102.73 | 1092.9
m1 = 0.1695 | 1137.12 | 1132.18 | 1127.26 | 1117.42 | 1107.6 | 1097.8
m1 = 0.1911 | 1141.97 | 1137.05 | 1132.14 | 1122.33 | 1112.53 | 1102.76
m1 = 0.2111 | 1146.48 | 1141.57 | 1136.67 | 1126.88 | 1117.12 | 1107.38
